This is an account of results in PubChem BioAssay AID248 (DTP/NCI, 2004).

The test system of this assay is L1210 leukemia ip in BDF1 mice, survival T/C. Kind of assay: NCI In Vivo Anticancer Drug Screen. Data for tumor model L1210 Leukemia (intraperitoneal) in B6D2F1 (BDF1) mice. Particulars: endpoint: mean survival time, higher = longer survival. Summed up: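 Antitumor effect is assessed in tumor-bearing animals. Survival in the compound arm is compared with a vehicle-dosed control arm and expressed as their quotient.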

Setting [1] is: dose: 100.0 mg/kg/injection, schedule: Q01DX009 (ip), vehicle: saline with Tween-80.
[2] abbreviates: dose: 200.0 mg/kg/injection, schedule: Q01DX009 (ip), vehicle: saline with Tween-80.
[3] abbreviates: dose: 400.0 mg/kg/injection, schedule: Q01DX009 (ip), vehicle: saline with Tween-80.
[4] abbreviates: dose: 50.0 mg/kg/injection, schedule: Q01DX009 (ip), vehicle: saline.
[5] abbreviates: dose: 200.0 mg/kg/injection, schedule: Q01DX009 (ip), vehicle: saline.
[6] abbreviates: dose: 100.0 mg/kg/injection, schedule: Q01DX009 (ip), vehicle: Klucel (hydroxypropylcellulose) (HPC).
Where [7] appears, read: dose: 100.0 mg/kg/injection, schedule: Q04DX003 (ip), vehicle: Klucel (hydroxypropylcellulose) (HPC).
The mark [8] stands for this setting: dose: 200.0 mg/kg/injection, schedule: Q04DX003 (ip), vehicle: Klucel (hydroxypropylcellulose) (HPC).
[9] abbreviates: dose: 400.0 mg/kg/injection, schedule: Q04DX003 (ip), vehicle: Klucel (hydroxypropylcellulose) (HPC).

SMILES strings stand for the structures. Where “and” joins values, the source holds several entries; their conditions need not be identical. Equal values may be shown once. Inconclusive results and toxic doses are left out.

Take `O=NN(CCCl)C(=O)Nc1cc(Cl)ccc1O`: the T/C is, setting by setting: (dose: 1.0 mg/kg/injection, schedule: Q01DX001 (ip), vehicle: carboxymethylcellulose (CMC)) 116 % of control; (dose: 2.0 mg/kg/injection, schedule: Q01DX001 (ip), vehicle: carboxymethylcellulose (CMC)) 110 % of control; (dose: 4.0 mg/kg/injection, schedule: Q01DX001 (ip), vehicle: carboxymethylcellulose (CMC)) 116 % of control; (dose: 44.0 mg/kg/injection, schedule: Q01DX009 (ip), vehicle: carboxymethylcellulose (CMC)) 100 % of control; (dose: 66.0 mg/kg/injection, schedule: Q01DX001 (ip), vehicle: carboxymethylcellulose (CMC)) 111 % of control; (dose: 66.0 mg/kg/injection, schedule: Q01DX009 (ip), vehicle: carboxymethylcellulose (CMC)) 90 % of control. Moreover, the T/C reads like this: (dose: 100.0 mg/kg/injection, schedule: Q01DX001 (ip), vehicle: carboxymethylcellulose (CMC)) 114 % of control; (dose: 100.0 mg/kg/injection, schedule: Q01DX009 (ip), vehicle: carboxymethylcellulose (CMC)) 95 % of control; (dose: 150.0 mg/kg/injection, schedule: Q01DX001 (ip), vehicle: carboxymethylcellulose (CMC)) 111 % of control; (dose: 200.0 mg/kg/injection, schedule: Q01DX001 (ip), vehicle: carboxymethylcellulose (CMC)) 115 % of control; (dose: 225.0 mg/kg/injection, schedule: Q01DX001 (ip), vehicle: carboxymethylcellulose (CMC)) 123 % of control; (dose: 400.0 mg/kg/injection, schedule: Q01DX001 (ip), vehicle: carboxymethylcellulose (CMC)) 116 % of control. The T/C (dose: 800.0 mg/kg/injection, schedule: Q01DX001 (ip), vehicle: carboxymethylcellulose (CMC)) was 118 % of control.

In the case of `O=[N+]([O-])c1cccc(OCCOc2ccccc2)c1`, the T/C (dose: 25.0 mg/kg/injection, schedule: Q01DX009 (ip), vehicle: saline with Tween-80) is 116 % of control; the T/C (dose: 33.0 mg/kg/injection, schedule: Q01DX009 (ip), vehicle: saline with Tween-80) was 98 % of control; the T/C (dose: 75.0 mg/kg/injection, schedule: Q01DX009 (ip), vehicle: saline with Tween-80) is 96 % of control; the T/C under setting [1] is 102 % of control and 86 % of control; the T/C under setting [2] was 102 % of control; the T/C under setting [3] is 102 % of control.

On to `O=C(c1ccccc1)c1c[nH]c2c(O)ccc(O)c12`, for which the T/C (dose: 12.5 mg/kg/injection, schedule: Q04DX002 (ip), vehicle: Klucel (hydroxypropylcellulose) (HPC)) was 91 % of control; the T/C (dose: 25.0 mg/kg/injection, schedule: Q04DX002 (ip), vehicle: Klucel (hydroxypropylcellulose) (HPC)) is 95 % of control; the T/C (dose: 50.0 mg/kg/injection, schedule: Q04DX002 (ip), vehicle: Klucel (hydroxypropylcellulose) (HPC)) is 95 % of control.

As to `Cc1cc(=O)[nH]c2c(Br)cccc12`, the T/C runs as follows: (dose: 75.0 mg/kg/injection, schedule: Q04DX003 (ip), vehicle: Klucel (hydroxypropylcellulose) (HPC)) 87 % of control; (dose: 150.0 mg/kg/injection, schedule: Q04DX003 (ip), vehicle: Klucel (hydroxypropylcellulose) (HPC)) 97 % of control; (dose: 300.0 mg/kg/injection, schedule: Q04DX003 (ip), vehicle: Klucel (hydroxypropylcellulose) (HPC)) 97 % of control.

In the case of `O=C(CN1CCOCC1)Nc1cccc(C(F)(F)F)c1`, the T/C under setting [1] was 96 % of control; the T/C (dose: 100.0 mg/kg/injection, schedule: Q04DX003 (ip), vehicle: saline with Tween-80) was 101 % of control; the T/C under setting [2] was 104 % of control; the T/C (dose: 200.0 mg/kg/injection, schedule: Q04DX003 (ip), vehicle: saline with Tween-80) is 111 % of control; the T/C under setting [3] is 109 % of control; the T/C (dose: 400.0 mg/kg/injection, schedule: Q04DX003 (ip), vehicle: saline with Tween-80) was 97 % of control.

For `CC(C)(C)OC(=O)NCC(=O)O`, the T/C is 93 % of control under setting [4]; 93 % of control (dose: 75.0 mg/kg/injection, schedule: Q01DX001 (ip), vehicle: acetone); 96 % of control (dose: 100.0 mg/kg/injection, schedule: Q01DX009 (ip), vehicle: saline); 97 % of control (dose: 100.0 mg/kg/injection, schedule: Q04DX003 (ip), vehicle: saline); 99 % of control (dose: 150.0 mg/kg/injection, schedule: Q01DX001 (ip), vehicle: acetone); 93 % of control under setting [5]. The T/C is 106 % of control (dose: 200.0 mg/kg/injection, schedule: Q04DX003 (ip), vehicle: saline) and 103 % of control (dose: 300.0 mg/kg/injection, schedule: Q01DX001 (ip), vehicle: acetone).

In the case of `CCC(C#N)N1CC1` (stereo unspecified), the T/C reads like this: (dose: 15.0 mg/kg/injection, schedule: Q01DX001 (ip), vehicle: saline) 94 % of control; (dose: 30.0 mg/kg/injection, schedule: Q01DX001 (ip), vehicle: saline) 104 % of control.

On to `CCc1c2cc(OC)c(OC)cc2cc2c3cc(OC)c(OC)cc3cc[n+]12` (tested in a mixture with another compound), for which the T/C is 116 % of control (dose: 25.0 mg/kg/injection, schedule: Q01DX009 (ip), vehicle: saline); 123 % of control under setting [4]; 150 % of control (dose: 66.0 mg/kg/injection, schedule: Q01DX009 (ip), vehicle: saline with Tween-80); 121 % of control (dose: 88.0 mg/kg/injection, schedule: Q04DX003 (ip), vehicle: saline); 160 % of control under setting [1]; 156 % of control (dose: 150.0 mg/kg/injection, schedule: Q01DX009 (ip), vehicle: saline with Tween-80). For the same molecule, the T/C reads like this: under setting [5], 89 % of control; (dose: 300.0 mg/kg/injection, schedule: Q04DX003 (ip), vehicle: saline) 107 % of control.

Regarding `O=C1c2ccccc2C(Cl)=C(Cl)C1(Cl)Cl`, the T/C was 90 % of control (dose: 25.0 mg/kg/injection, schedule: Q01DX009 (ip), vehicle: Klucel (hydroxypropylcellulose) (HPC)); 90 % of control (dose: 50.0 mg/kg/injection, schedule: Q01DX009 (ip), vehicle: Klucel (hydroxypropylcellulose) (HPC)); 90 % of control under setting [6]; 96 % of control under setting [7].

Regarding `CCOC(=O)c1cnc(C)nc1NCc1ccccc1`, the T/C reads like this: (dose: 100.0 mg/kg/injection, schedule: Q01DX001 (ip), vehicle: Klucel (hydroxypropylcellulose) (HPC)) 101 % of control; (dose: 200.0 mg/kg/injection, schedule: Q01DX001 (ip), vehicle: Klucel (hydroxypropylcellulose) (HPC)) 103 % of control; (dose: 400.0 mg/kg/injection, schedule: Q01DX001 (ip), vehicle: Klucel (hydroxypropylcellulose) (HPC)) 113 % of control.

As for `CCC/C=C/C(C)C`, the T/C is 105 % of control under setting [6]; 93 % of control under setting [7]; 92 % of control (dose: 200.0 mg/kg/injection, schedule: Q01DX009 (ip), vehicle: Klucel (hydroxypropylcellulose) (HPC)); 97 % of control under setting [8]; 95 % of control (dose: 400.0 mg/kg/injection, schedule: Q01DX009 (ip), vehicle: Klucel (hydroxypropylcellulose) (HPC)); 101 % of control under setting [9].

Turning to `Nc1c(C(=O)O)cc(Br)c2c1C(=O)c1ccccc1C2=O`, the T/C under setting [7] is 97 % of control and the T/C under setting [8] was 95 % of control.

Take `O=C(Nc1ccccc1C(=O)c1ccccn1)c1ccccc1`: the T/C by setting is: under setting [7], 104 % of control; under setting [8], 98 % of control; under setting [9], 101 % of control.

On to `CCNC(=O)NCc1ccc(C)cc1`, for which the T/C by setting is: (dose: 100.0 mg/kg/injection, schedule: Q04DX002 (ip), vehicle: Klucel (hydroxypropylcellulose) (HPC)) 102 % of control; (dose: 200.0 mg/kg/injection, schedule: Q04DX002 (ip), vehicle: Klucel (hydroxypropylcellulose) (HPC)) 105 % of control; (dose: 400.0 mg/kg/injection, schedule: Q04DX002 (ip), vehicle: Klucel (hydroxypropylcellulose) (HPC)) 112 % of control.

For `CC1(C(Cl)Cl)CCCCC1=O` (stereo unspecified), the T/C is, setting by setting: (dose: 5.0 mg/kg/injection, schedule: Q01DX001 (ip), vehicle: saline) 95 % of control; (dose: 10.0 mg/kg/injection, schedule: Q01DX001 (ip), vehicle: saline) 96 % of control; (dose: 20.0 mg/kg/injection, schedule: Q01DX001 (ip), vehicle: saline) 109 % of control; (dose: 40.0 mg/kg/injection, schedule: Q01DX001 (ip), vehicle: saline) 100 % of control; (dose: 80.0 mg/kg/injection, schedule: Q01DX001 (ip), vehicle: saline) 97 % of control; (dose: 100.0 mg/kg/injection, schedule: Q01DX001 (ip), vehicle: saline) 104 % of control.
